These results are taken from patent US11414429B2, “Compound or pharmaceutically acceptable salt thereof” (RIKEN, priority 2016, dated 2022).

Each structure is given as a SMILES string. Where two headings read alike, the source gives them in different places. Some results are limits rather than exact numbers.

One assay has as its target T1, tankyrase 1 (TNKS 1) (Homo sapiens, UniProt O95271).
T1 construct: 1,024-1,327aa; made in house; host or cells: cell-free protein synthesis system
The assay can be described thus: Tankyrase inhibitory activity test (ELISA, self-polyADP ribosylation), tankyrase 1. The class given is biochemical. The conditions noted are these: self-polyADP ribosylation. In short, it runs like this: (§1)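 Flag-tagged TNKS1 (1,024-1,327aa, SAM+PARP) and TNKS2 (613-1,116aa, ANK5+SAM+PARP) were made cell-free and captured overnight at 4 °C on anti-FLAG M2 plates. After 10 min compound preincubation in Tris pH 8.0/MgCl2/DTT buffer, NAD (225 μM) plus biotin-NAD (25 μM) solution was added for 45 min at 30 °C. Auto-PARylation was read by streptavidin-HRP chemiluminescence, giving IC50 from residual activity.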
On the technique in general: ELISA stands for enzyme-linked immunosorbent assay.

For another assay, the target named is T2, tankyrase 2 (TNKS 2) (Homo sapiens, UniProt Q9H2K2).
T2 construct: 613-1, 116aa; made in house; host or cells: cell-free protein synthesis system
T2 sequence (Q9H2K2 613-1166): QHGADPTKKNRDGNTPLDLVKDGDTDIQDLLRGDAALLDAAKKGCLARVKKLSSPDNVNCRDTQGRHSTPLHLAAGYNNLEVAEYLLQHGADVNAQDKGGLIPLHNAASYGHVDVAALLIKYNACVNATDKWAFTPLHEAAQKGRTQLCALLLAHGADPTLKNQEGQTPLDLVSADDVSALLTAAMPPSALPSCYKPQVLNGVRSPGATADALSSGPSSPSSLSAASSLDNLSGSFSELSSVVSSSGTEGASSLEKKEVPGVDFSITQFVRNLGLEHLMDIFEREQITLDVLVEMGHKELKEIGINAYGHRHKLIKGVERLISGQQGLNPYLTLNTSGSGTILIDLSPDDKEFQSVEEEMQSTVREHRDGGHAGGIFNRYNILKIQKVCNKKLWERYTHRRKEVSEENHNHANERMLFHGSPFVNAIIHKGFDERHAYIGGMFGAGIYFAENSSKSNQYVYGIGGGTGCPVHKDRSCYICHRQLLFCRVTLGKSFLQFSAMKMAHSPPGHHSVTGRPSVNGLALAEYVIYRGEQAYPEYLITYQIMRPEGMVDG
Put plainly: Tankyrase inhibitory activity test (ELISA, self-polyADP ribosylation), tankyrase 2. In kind it is biochemical. As to conditions: self-polyADP ribosylation. The method in brief: as §1

The subject of assay [1] is human colorectal cancer cell line, COLO-320DM. Put plainly: Cell proliferation inhibitory activity test (Celltiter-Glo Luminescent Cell Viability Assay). The class given is cell-based. As to conditions: COLO-320DM cells, 96 hours. The method in brief:
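Cells grown in RPMI-1640 with 10% FBS and 2 mM glutamine, seeded overnight, then exposed to compound (1% DMSO final) for 96 h at 37° C., 5% CO2. Viability read by ATP luminescence; GI50 is the concentration reducing cell growth to 50% of DMSO control.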
For orientation: ATP-based viability assays read luminescence as a measure of living cells.

The mark [2] stands for this setting: tankyrase 1, ELISA, read-out: TNKS1 inhibitory activity (IC50 class).
The mark [3] stands for this setting: tankyrase 2, ELISA, read-out: TNKS2 inhibitory activity (IC50 class).
[4] abbreviates: read-out: COLO-320 DM cell proliferation inhibitory activity (GI50 class).
The mark [5] stands for this setting: ELISA, class symbols, read-out: TNKS1 (inhibitory activity against tankyrase 1, IC50 value).
Where [6] appears, read: ELISA, class symbols, read-out: TNKS2 (inhibitory activity against tankyrase 2, IC50 value).
Where [7] appears, read: class symbols, read-out: COLO-320 DM (cell proliferation inhibitory activity, GI50 value).

T1 sequence (O95271 1024-1327): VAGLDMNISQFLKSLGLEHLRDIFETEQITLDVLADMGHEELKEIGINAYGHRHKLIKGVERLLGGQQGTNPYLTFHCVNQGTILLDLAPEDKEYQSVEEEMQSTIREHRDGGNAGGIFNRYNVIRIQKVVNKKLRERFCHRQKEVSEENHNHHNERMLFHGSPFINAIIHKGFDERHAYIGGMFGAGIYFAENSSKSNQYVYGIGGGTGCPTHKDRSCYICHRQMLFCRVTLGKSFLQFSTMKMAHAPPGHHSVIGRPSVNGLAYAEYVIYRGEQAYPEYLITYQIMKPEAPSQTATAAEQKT

`CN1CCN(c2cc(F)c3c(c2)N(C)C(=O)C32CCN(c3nc4c(c(=O)[nH]3)CCCN4C)CC2)CC1` [Example 387, 4-fluoro-1-methyl-1′-(8-methyl-4-oxo-3,4,5,6,7,8-hexahydropyrido [2,3-d]pyrimidin-2-yl)-6-(4-methylpiperazin-1-yl)spiro [indoline-3,4′-piperidin]-2-one]: the IC50 at tankyrase 1 (TNKS 1) (setting [2]) and at tankyrase 2 (TNKS 2) (setting [3]) was less than 0.02 µM in each case. In addition, in assay [1] (setting [4]), the GI50 is less than 0.1 µM.

On to `CN1CCCc2c1nc(N1CCC3(CC1)C(=O)N(C)c1cc(OCC4COC4)cc(F)c13)[nH]c2=O` [Example 388, 4-fluoro-1-methyl-1′-(8-methyl-4-oxo-3,4,5,6,7,8-hexahydropyrido [2,3-d]pyrimidin-2-yl)-6-(oxetan-3-ylmethoxy) spiro[indoline-3,4′-piperidin]-2-one], for which the IC50 on tankyrase 1 (TNKS 1) (setting [2]) and on tankyrase 2 (TNKS 2) (setting [3]) was less than 0.02 µM throughout. In addition, the GI50 in assay [1] (setting [4]) was less than 0.1 µM.

As for `CN1CCCc2c1nc(N1CCC3(CC1)C(=O)N(C)c1cc(OC4CCOCC4)cc(F)c13)[nH]c2=O` [Example 389, 4-fluoro-1-methyl-1′-(8-methyl-4-oxo-3,4,5,6,7,8-hexahydropyrido [2,3-d]pyrimidin-2-yl)-6-[(tetrahydro-2H-pyran-4-yl)oxy]spiro [indoline-3,4′-piperidin]-2-one], the IC50 on tankyrase 1 (TNKS 1) (setting [2]) and on tankyrase 2 (TNKS 2) (setting [3]) was less than 0.02 µM throughout. Moreover, in assay [1] (setting [4]), the GI50 was less than 0.1 µM.

As to `C[C@@H]1CN(c2cc(F)c3c(c2)N(C)C(=O)C32CCN(c3nc4c(c(=O)[nH]3)CCCN4C)CC2)C[C@H](C)N1` [Example 390, 6-(cis-3,5-dimethyl-piperazin-1-yl)-4-fluoro-1-methyl-1′-(8-methyl-4-oxo-3,4,5,6,7,8-hexahydropyrido [2,3-d]pyrimi-din-2-yl) spiro[indoline-3,4′-piperidin]-2(1H)-one], the IC50 at tankyrase 1 (TNKS 1) (setting [5]) and on tankyrase 2 (TNKS 2) (setting [6]) was less than 0.02 µM throughout. In assay [1] (setting [7]), the GI50 was 0.1 to 0.6 µM.

For the compound `CN1CCCc2c1nc(N1CCC3(CC1)C(=O)N(C)c1cc(N4CC5CCC(C4)N5)cc(F)c13)[nH]c2=O` [Example 391, 6-(3,8-diazabicyclo [3.2.1]octan-3-yl)-4-fluoro-1-methyl-1′-(8-methyl-4-oxo-3,4,5,6,7,8-hexahydro-pyrido[2,3-d]pyrimidin-2-yl) spiro[indoline-3,4′-piperidin]-2(1H)-one], the IC50 on tankyrase 1 (TNKS 1) (setting [5]) and at tankyrase 2 (TNKS 2) (setting [6]) was less than 0.02 µM throughout. Moreover, in assay [1] (setting [7]), the GI50 was in the range of 0.6 to 1 µM.

In the case of `CN1CCCc2c1nc(N1CCC3(CC1)C(=O)N(C)c1cc(OCC(=O)O)cc(F)c13)[nH]c2=O` [Example 392], the IC50 on tankyrase 1 (TNKS 1) (setting [5]) and at tankyrase 2 (TNKS 2) (setting [6]) was less than 0.02 µM each time. Moreover, the GI50 in assay [1] (setting [7]) is 0.1 to 0.6 µM.

With `CN1CCCc2c1nc(N1CCC3(CC1)C(=O)N(C)c1cc(OCc4nnn[nH]4)cc(F)c13)[nH]c2=O` [Example 393, 6-[(1H-tetrazol-5-yl)methoxy]-4-fluoro-1-methyl-1′-(8-methyl-4-oxo-3,4,5,6,7,8-hexahydropyrido [2,3-d]pyrimidin-2-yl)spiro [indoline-3,4′-piperidin]-2(1H)-one], the IC50 on tankyrase 1 (TNKS 1) (setting [5]) and at tankyrase 2 (TNKS 2) (setting [6]) was less than 0.02 µM throughout. In addition, in assay [1] (setting [7]), the GI50 is 0.1 to 0.6 µM.

On to `CN1CCCc2c1nc(N1CCC3(CC1)C(=O)N(C)c1cc(OCCN4CCCC4CO)cc(F)c13)[nH]c2=O` (stereo not drawn) [Example 394, 4-fluoro-6-{2-[2-(hy-droxymethyl)pyrrolidin-1-yl]ethoxy}-1-methyl-1′-(8-methyl-4-oxo-3,4,5,6,7,8-hexahydropyrido [2,3-d]pyrimidin-2-yl)spiro [indoline-3,4′-piperidin]-2(1H)-one], for which the IC50 on tankyrase 1 (TNKS 1) (setting [5]) and on tankyrase 2 (TNKS 2) (setting [6]) was less than 0.02 µM in each case. Moreover, in assay [1] (setting [7]), the GI50 lay within 0.6 to 1 µM.

As for `CN1CCCc2c(O)nc(N3CCC4(CC3)OC(=O)c3cc(OCCN5CCCC5)cc(F)c34)nc21` [Example 395, 4-fluoro-1′-(4-hydroxy-8-methyl-6,7-dihydro-5H-pyrido[2,3-d]pyrimidin-2-yl)-6-(2-pyrrolidin-1-ylethoxy)spiro[2-benzofuran-3,4′-piperidine]-1-one], the half-inhibitory concentration (IC50) on tankyrase 1 (TNKS 1) (setting [5]) and at tankyrase 2 (TNKS 2) (setting [6]) was less than 0.02 µM each time. For the same compound, in assay [1] (setting [7]), the GI50 lay within 0.6 to 1 µM.

Consider `CN(C)CCOc1ccc(Cl)c2c1N(C)C(=O)C21CCN(c2nc3c(c(=O)[nH]2)CCCN3C)CC1` [Example 396, 4-chloro-7-[2-(dimethylamino)ethoxy]-1-methyl-1′-(8-methyl-4-oxo-3,4,5,6,7,8-hexahydro-pyrido [2,3-d]pyrimidin-2-yl)spiro [indoline-3,4′-piperidin]-2(1H)-one], for which the IC50 on tankyrase 1 (TNKS 1) (setting [5]) and at tankyrase 2 (TNKS 2) (setting [6]) was less than 0.02 µM throughout. Further, the GI50 in assay [1] (setting [7]) fell in the range of 0.1 to 0.6 µM.

Take `COCCN1CCN(c2cc(F)c3c(c2)N(C)C(=O)C32CCN(c3nc4c(c(=O)[nH]3)CCCN4C)CC2)CC1` [Example 397, 4-fluoro-6-(4-(2-methoxy-ethyl)piperazin-1-yl)-1-methyl-1′-(8-methyl-4-oxo-3,4,5,6,7,8-hexahydro-pyrido [2,3-d]pyrimidin-2-yl) spiro[indoline-3,4′-piperidin]-2(1H)-one]: the IC50 at tankyrase 1 (TNKS 1) (setting [5]) and at tankyrase 2 (TNKS 2) (setting [6]) was 0.02 to 0.2 µM each time. Besides, in assay [1] (setting [7]), the GI50 lay within 0.1 to 0.6 µM.

Consider `CN1CCCc2c1nc(N1CCC3(CC1)C(=O)N(C)c1cc(N4CCN(C5COC5)CC4)cc(F)c13)[nH]c2=O` [Example 398, 4-fluoro-1-methyl-1′-(8-methyl-4-oxo-3,4,5,6,7,8-hexahydro-pyrido [2,3-d]pyrimidin-2-yl)-6-(4-(oxetan-3-yl)piperazin-1-yl)spiro [indoline-3,4′-piperidin]-2(1H)-one], for which the IC50 on tankyrase 1 (TNKS 1) (setting [5]) and on tankyrase 2 (TNKS 2) (setting [6]) was less than 0.02 µM in each case. For the same compound, the GI50 in assay [1] (setting [7]) lay within 0.1 to 0.6 µM.

Take `CN1CCCc2c1nc(N1CCC3(CC1)C(=O)N(CC(F)(F)F)c1cc(OCCO)cc(F)c13)[nH]c2=O` [Example 399, 4-fluoro-6-(2-hydroxy-ethoxy)-1′-(8-methyl-4-oxo-3,4,5,6,7,8-hexahydro-pyrido [2,3-d]pyri-midin-2-yl)-1-(2,2,2-trifluoroethyl) spiro [indoline-3,4′-piperidin]-2(1H)-one]: the IC50 on tankyrase 1 (TNKS 1) (setting [5]) and at tankyrase 2 (TNKS 2) (setting [6]) was less than 0.02 µM throughout. Besides, the GI50 in assay [1] (setting [7]) is 0.1 to 0.6 µM.

`CN(C)CCOc1cc(F)c2c(c1)N(CC(F)(F)F)C(=O)C21CCN(c2nc3c(c(=O)[nH]2)CCCN3C)CC1` [Example 400, 6-[2-(di-methylamino)ethoxy]-4-fluoro-1′-(8-methyl-4-oxo-3,4,5,6,7,8-hexahydro-pyrido [2,3-d]pyrimidin-2-yl)-1-(2,2,2-trifluoroethyl) spiro[indoline-3,4′-piperidin]-2(1H)-one]: the IC50 at tankyrase 1 (TNKS 1) (setting [5]) and at tankyrase 2 (TNKS 2) (setting [6]) was 0.02 to 0.2 µM each time. Also, the GI50 in assay [1] (setting [7]) is 0.1 to 0.6 µM.

Turning to `CN(C)CCOc1ccc(F)c2c1N(C)C(=O)C21CCN(c2nc3c(c(=O)[nH]2)CCCN3C)CC1` [Example 401, 7-[2-(dimethylamino)ethoxy]-4-fluoro-1′-(4-hy-droxy-8-methyl-6,7-di-hydro-5H-pyrido[2,3-d]pyrimidin-2-yl)-1-methyl spiro[indole-3,4′-piperidin]-2-one], the IC50 at tankyrase 1 (TNKS 1) (setting [5]) and at tankyrase 2 (TNKS 2) (setting [6]) was less than 0.02 µM in each case. For the same compound, the GI50 in assay [1] (setting [7]) lay in the range of 0.1 to 0.6 µM.

As to `CN1CCN(c2cc(F)c3c(c2)N(CC#N)C(=O)C32CCN(c3nc4c(c(=O)[nH]3)CCCN4C)CC2)CC1` [Example 402, [4-fluoro-1′-(8-methyl-4-oxo-3,4,5,6,7,8-hexahydropyrido [2,3-d]py-rimidin-2-yl)-6-(4-methyl-piperazin-1-yl)-2-oxo-spiro[indoline-3,4′-piperidin]-1(2H)-yl] acetonitrile], the figures for the IC50 at tankyrase 1 (TNKS 1) (setting [5]) and at tankyrase 2 (TNKS 2) (setting [6]) were 0.02 to 0.2 µM and less than 0.02 µM, respectively. Besides, the GI50 in assay [1] (setting [7]) was in the range of 0.1 to 0.6 µM.

`CC(=O)N1CCN(c2cc(F)c3c(c2)N(C)C(=O)C32CCN(c3nc4c(c(=O)[nH]3)CCCN4C)CC2)CC1` [Example 403, 6-(4-acetylpiperazin-1-yl)-4-fluoro-1-methyl-1′-(8-methyl-4-oxo-3,4,5,6,7,8-hexahydropy-rido[2,3-d]pyrimidin-2-yl)-spiro [indoline-3,4′-piperidin]-2(1H)-one]: the IC50 at tankyrase 1 (TNKS 1) (setting [5]) and on tankyrase 2 (TNKS 2) (setting [6]) was less than 0.02 µM each time. The GI50 in assay [1] (setting [7]) was 0.1 to 0.6 µM.

Regarding `CN1CCCc2c1nc(N1CCC3(CC1)C(=O)N(CC(F)(F)F)c1cc(OCCN4CCCC4)cc(F)c13)[nH]c2=O` [Example 404, 4-fluoro-1′-(8-methyl-4-oxo-3,4,5,6,7,8-hexa hydropyrido [2,3-d]pyrimidin-2-yl)-6-[2-(pyrroli-din-1-yl)ethoxy]-1-(2,2,2-trifluoroethyl) spiro [indoline-3,4′-piperidin]-2(1H)-one], the IC50 on tankyrase 1 (TNKS 1) (setting [5]) and at tankyrase 2 (TNKS 2) (setting [6]) was 0.02 to 0.2 µM throughout. Besides, the GI50 in assay [1] (setting [7]) fell in the range of 0.6 to 1 µM.

Regarding `COCCN1C(=O)C2(CCN(c3nc4c(c(=O)[nH]3)CCCN4C)CC2)c2c(F)cc(OCCN(C)C)cc21` [Example 405], the IC50 on tankyrase 1 (TNKS 1) (setting [5]) and on tankyrase 2 (TNKS 2) (setting [6]) was less than 0.02 µM each time. The GI50 in assay [1] (setting [7]) is 0.6 to 1 µM.

Broadly, the IC50 is the concentration at which inhibition is half-maximal.
